According to US12391799B2, “Peptoid polymers and methods of use” (X-Therma, Inc., priority 2017, dated 2025):
Numbered stars: 1 amine (or outer) side, 2 acyl side, 3 side chain; on linkers, the order of the positions; unused ones are H or OH. Square brackets hold non-standard residues; d marks the D form. Peptide text beside a SMILES is read from it. X1 = CC(O)CN(CC(=O)[*:2])[*:1]; N(iPr)Gly = CC(C)NCC(=O)O; NBuGly = CCCCNCC(=O)O; Nleu = CC(C)CNCC(=O)O

Experiments:
[1] = Crystallographic x-ray diffraction (XRD) ice crystal formation assay; type: physicochemical; settings: 1 and 5 mg/mL peptoid, EG 15-30% (v/v)
Procedure: In order to increase the throughput of library analysis, a crystallographic x-ray diffraction (XRD) technique was used to evaluate ice crystal formation. For these experiments, the compounds named “Compound 2,” “Compound 8,” “Compound 10,” “Compound 11,” “Compound 12,” “Compound 13,” and “Compound 58” were tested. Compound 58 is similar to Compound 12, except that an arginine amino acid has been appended to the N-terminal end.
For these experiments, EG concentrations between 15% and 30% (v/v) were used. Typically, EG, DMSO, and other cryoprotectants are used during XRD sample analysis at concentrations of 35-40% (v/v) to vitrify solutions and avoid diffraction interference from ice crystals. Concentrations of 1 and 5 mg/mL of the peptoid and peptoid-peptide compounds were used. FIGS. 3A, 3B, and 3C illustrate exemplary XRD data under conditions of complete vitrification, partial vitrification with the presence of cubic ice, and freezing ([…]), respectively. FIG. 3D provides ice rings scores for a variety of EG concentrations and two concentrations of Compounds 2, 8, and 12.
“IceRing1” and “IceRing2” refer to ice formation scores, which range between 0 (no ice formation) and 15 (large ice formation).

[2] = Vitrification screening assay (critical EG concentration); type: physicochemical; settings: for Critical Ethylene Glycol Concentration: lowest EG for complete vitrification of 20 μL sample, 5 mg/mL peptoid in formulation, liquid nitrogen immersion; for EG required to permit vitrification: 20 μL sample, 5 mg/mL peptoid, formulation without peptoid needs 20% or more EG
Procedure: As another means of increasing the throughput of library analysis, a vitrification screening assay was performed to evaluate anti-icing efficacy. For these experiments the compounds named “Compound 11,” “Compound 12,” “Compound 25,” Compound 26,” “Compound 27,” “Compound 28,” “Compound 60,” “Compound 62,” “Compound 63,” “Compound 64,” “Compound 69,” “Compound 70,” “Compound 71,” “Compound 72,” “Compound 73,” “Compound 74,” “Compound 75,” “Compound 76,” “Compound 77,” “Compound 78,” “Compound 81,” “Compound 82,” “Compound 83,” “Compound 84,” and “Compound 85” were tested.
For these experiments, 20 μL samples were flash frozen by liquid immersion in liquid nitrogen. Ethylene glycol (EG) concentrations between 5% and 25% (v/v) were used. A concentration of 5 mg/mL of peptoid polymer compounds were used in formulation. Table 12 lists the lowest concentration of EG necessary to bring about complete vitrification of a 20 μL sample with peptoid polymer in formulation, referred to as the “critical EG concentration.” A sample of formulation without the presence of a peptoid polymer was only able to bring about vitrification at 20% or more EG. Peptoid polymers of interest were able to bring about vitrification within formulas containing EG when the concentration of EG was lower than 20%.

Structure (SMILES)	reduction of necessary EG concentration while preventing ice formation (XRD ice ring scores) [1]	Critical Ethylene Glycol Concentration [2]	EG required to permit vitrification [2]
CCC(C)NCC(=O)N(CC(=O)N(CC(=O)N(CC(=O)N(CC(=O)N(CC(=O)N(CC(=O)N(CC(=O)N(CC(=O)N(CC(N)=O)CC(C)O)C(C)CC)C(C)CC)C(C)CC)CC(C)O)CC(C)O)CC(C)O)C(C)CC)C(C)CC (stereo not drawn) [Compound 2, Nsb-Nsb-Nsb-Nhp-Nhp-Nhp-Nsb-Nsb-Nsb-Nhp]	significantly reduced necessary EG concentrations while preventing ice formation		
CCC(C)NCC(=O)N(CC(=O)N(CC(=O)N(CC(=O)N(CC(=O)N(CC(=O)N(CC(=O)N(CC(=O)N(CC(=O)N(CC(N)=O)C(C)CC)C(C)CC)CC1CCCO1)CC1CCCO1)C(C)CC)C(C)CC)CC1CCCO1)CC1CCCO1)C(C)CC (stereo not drawn) [Compound 63, Nsb-Nsb-Ntf-Ntf-Nsb-Nsb-Ntf-Ntf-Nsb-Nsb]		15.0% (ν/ν)	
CCC(C)N(CC(N)=O)C(=O)CN(C(=O)CN(CC(C)O)C(=O)CN(CC(C)O)C(=O)CN(C(=O)CN(C(=O)CN(CC(C)O)C(=O)CNCC(C)O)C(C)CC)C(C)CC)C(C)CC (stereo not drawn) [Compound 82, Nhp-Nhp-Nsb-Nsb-Nhp-Nhp-Nsb-Nsb]		12.5% (ν/ν)	required significantly less EG in order to permit vitrification
CCC(C)NCC(=O)N(CC(=O)N(CC(=O)N(CC(=O)N(CC(=O)N(CC(=O)N(CC(=O)N(CC(=O)N(CC(=O)N(CC(=O)N(CC(=O)N(CC(=O)N(CC(=O)N(CC(N)=O)C(C)CC)C(C)CC)CC(C)O)CC(C)O)C(C)CC)C(C)CC)CC(C)O)CC(C)O)C(C)CC)C(C)CC)CC(C)O)CC(C)O)C(C)CC (stereo not drawn) [Compound 83, Nsb-Nsb-Nhp-Nhp-Nsb-Nsb-Nhp-Nhp-Nsb-Nsb-Nhp-Nhp-Nsb-Nsb]		10.0% (ν/ν)	required significantly less EG in order to permit vitrification
CCC(C)NCC(=O)N(CC(=O)N(CC(=O)N(CC(=O)N(CC(=O)N(CC(=O)N(CC(=O)N(CC(=O)N(CC(=O)N(CC(N)=O)C(C)CC)C(C)CC)CC(C)O)CC(C)O)C(C)CC)C(C)CC)CC(C)O)C(C)CC)C(C)CC (stereo not drawn) [Compound 72, Nsb-Nsb-Nsb-Nhp-Nsb-Nsb-Nhp-Nhp-Nsb-Nsb]		17.5% (ν/ν)	
CCC(C)NCC(=O)N(CC(=O)N(CC(=O)N(CC(=O)N(CC(=O)N(CC(=O)N(CC(=O)N(CC(=O)N(CC(=O)N(CC(N)=O)C(C)CC)C(C)CC)CC(C)O)C(C)CC)C(C)CC)C(C)CC)CC(C)O)CC(C)O)C(C)CC (stereo not drawn) [Compound 70, Nsb-Nsb-Nhp-Nhp-Nsb-Nsb-Nsb-Nhp-Nsb-Nsb]		15.0% (ν/ν)	
CC[C@@H](C)NCC(=O)N(CC(=O)N(CC(=O)N(CC(=O)N(CC(=O)N(CC(=O)N(CC(=O)N(CC(=O)N(CC(=O)N(CC(N)=O)[C@H](C)CC)[C@H](C)CC)C[C@H](C)O)C[C@H](C)O)[C@H](C)CC)[C@H](C)CC)C[C@H](C)O)C[C@H](C)O)[C@H](C)CC [Compound 78, Nbr-Nbr-Nsh-Nsh-Nbr-Nbr-Nsh-Nsh-Nbr-Nbr]		15.0% (ν/ν)	
CC[C@@H](C)NCC(=O)N(CC(=O)N(CC(=O)N(CC(=O)N(CC(=O)N(CC(=O)N(CC(=O)N(CC(=O)N(CC(=O)N(CC(N)=O)[C@H](C)CC)[C@H](C)CC)C[C@@H](C)O)C[C@@H](C)O)[C@H](C)CC)[C@H](C)CC)C[C@@H](C)O)C[C@@H](C)O)[C@H](C)CC [Compound 77, Nbr-Nbr-Nrh-Nrh-Nbr-Nbr-Nrh-Nrh-Nbr-Nbr]		15.0% (ν/ν)	
CCC(C)NCC(=O)N(CC(=O)N(CC(=O)N(CC(=O)N(CC(=O)N(CC(=O)N(CC(=O)N(CC(=O)N(CC(=O)N(CC(=O)N(CC(=O)N(CC(=O)N(CC(=O)N(CC(=O)N(CC(=O)N(CC(=O)N(CC(=O)N(CC(=O)N(CC(=O)N(CC(=O)N(CC(=O)N(CC(N)=O)C(C)CC)C(C)CC)CC(C)O)CC(C)O)C(C)CC)C(C)CC)CC(C)O)CC(C)O)C(C)CC)C(C)CC)CC(C)O)CC(C)O)C(C)CC)C(C)CC)CC(C)O)CC(C)O)C(C)CC)C(C)CC)CC(C)O)CC(C)O)C(C)CC (stereo not drawn) [Compound 85, Nsb-Nsb-Nhp-Nhp-Nsb-Nsb-Nhp-Nhp-Nsb-Nsb-Nhp-Nhp-Nsb-Nsb-Nhp-Nhp-Nsb-Nsb-Nhp-Nhp-Nsb-Nsb]		10.0% (ν/ν)	required significantly less EG in order to permit vitrification
CCC(C)NCC(=O)N(CC(=O)N(CC(=O)N(CC(=O)N(CC(=O)N(CC(N)=O)C(C)CC)C(C)CC)CC(C)O)CC(C)O)C(C)CC (stereo not drawn) [Compound 81, Nsb-Nsb-Nhp-Nhp-Nsb-Nsb]		15.0% (ν/ν)	
CC(O)CN(CC(=O)N(CC(=O)N(CC(=O)N(CC(=O)N(CC(=O)N(CC(=O)N(CC(=O)N(CC(N)=O)C(C)C)C(C)C)CC(C)O)CC(C)O)C(C)C)C(C)C)CC(C)O)C(=O)CN(C(=O)CNC(C)C)C(C)C (stereo not drawn) [Compound 28, Nip-Nip-Nhp-Nhp-Nip-Nip-Nhp-Nhp-Nip-Nip] (H-[N(iPr)Gly][N(iPr)Gly][X1][X1][N(iPr)Gly][N(iPr)Gly][X1][X1][N(iPr)Gly][N(iPr)Gly]-NH2)		15.0% (ν/ν)	
CCC(C)NCC(=O)N(CC(=O)N(CC(=O)N(CC(=O)N(CC(=O)N(CC(=O)N(CC(=O)N(CC(=O)N(CC(=O)N(CC(N)=O)C(C)CC)C(C)CC)C(C)CC)CC(C)O)C(C)CC)C(C)CC)CC(C)O)CC(C)O)C(C)CC (stereo not drawn) [Compound 69, Nsb-Nsb-Nhp-Nhp-Nsb-Nsb-Nhp-Nsb-Nsb-Nsb]		15.0% (ν/ν)	
CCC(C)NCC(=O)N(CC(=O)N(CC(=O)N(CC(=O)N(CC(=O)N(CC(=O)N(CC(=O)N(CC(=O)N(CC(=O)N(CC(N)=O)C(C)CC)C(C)CC)CC(C)O)CC(C)O)C(C)CC)C(C)CC)C(C)CC)CC(C)O)C(C)CC (stereo not drawn) [Compound 71, Nsb-Nsb-Nhp-Nsb-Nsb-Nsb-Nhp-Nhp-Nsb-Nsb]		17.5% (ν/ν)	
CC(C)CNCC(=O)N(CC(=O)N(CC(=O)N(CC(=O)N(CC(=O)N(CC(=O)N(CC(=O)N(CC(=O)N(CC(=O)N(CC(N)=O)CC(C)C)CC(C)C)CC(C)O)CC(C)O)CC(C)C)CC(C)C)CC(C)O)CC(C)O)CC(C)C (stereo not drawn) [Compound 25, Nib-Nib-Nhp-Nhp-Nib-Nib-Nhp-Nhp-Nib-Nib] (H-[Nleu][Nleu][X1][X1][Nleu][Nleu][X1][X1][Nleu][Nleu]-NH2)		12.5% (ν/ν)	
CCC(C)N(CC(=O)N(CC(=O)N(CC(=O)N(CC(=O)N(CC(=O)N(CC(=O)N(CC(=O)N(CC(=O)N(CC(=O)N(CC(N)=O)C(C)CC)C(C)CC)CC(C)O)CC(C)O)C(C)CC)C(C)CC)CC(C)O)CC(C)O)C(C)CC)C(C)=O (stereo not drawn) [Compound 60, Ac-Nsb-Nsb-Nhp-Nhp-Nsb-Nsb-Nhp-Nhp-Nsb-Nsb]		12.5% (ν/ν)	required significantly less EG in order to permit vitrification
CCC(C)NCC(=O)N(CC(=O)N(CC(=O)N(CC(=O)N(CC(=O)N(CC(=O)N(CC(=O)N(CC(=O)N(CC(=O)N(CC(N)=O)C(C)CC)C(C)CC)Cc1ccco1)Cc1ccco1)C(C)CC)C(C)CC)Cc1ccco1)Cc1ccco1)C(C)CC (stereo not drawn) [Compound 73, Nsb-Nsb-Nff-Nff-Nsb-Nsb-Nff-Nff-Nsb-Nsb]		20.0% (ν/ν)	
CCC(C)NCC(=O)N(CC(=O)N(CC(=O)N(CC(=O)N(CC(=O)N(CC(=O)N(CC(=O)N(CC(=O)N(CC(=O)N(CC(N)=O)CC(C)O)CC(C)O)CC(C)O)C(C)CC)CC(C)O)CC(C)O)CC(C)O)CC(C)O)CC(C)O (stereo not drawn) [Compound 8, Nsb-Nhp-Nhp-Nhp-Nhp-Nhp-Nsb-Nhp-Nhp-Nhp]	significantly reduced necessary EG concentrations while preventing ice formation		
CCC(C)NCC(=O)N(CC(=O)N(CC(=O)N(CC(=O)N(CC(=O)N(CC(=O)N(CC(=O)N(CC(=O)N(CC(=O)N(CC(=O)N(CC(=O)N(CC(=O)N(CC(=O)N(CC(=O)N(CC(=O)N(CC(=O)N(CC(=O)N(CC(N)=O)C(C)CC)C(C)CC)CC(C)O)CC(C)O)C(C)CC)C(C)CC)CC(C)O)CC(C)O)C(C)CC)C(C)CC)CC(C)O)CC(C)O)C(C)CC)C(C)CC)CC(C)O)CC(C)O)C(C)CC (stereo not drawn) [Compound 84, Nsb-Nsb-Nhp-Nhp-Nsb-Nsb-Nhp-Nhp-Nsb-Nsb-Nhp-Nhp-Nsb-Nsb-Nhp-Nhp-Nsb-Nsb]		12.5% (ν/ν)	required significantly less EG in order to permit vitrification
CCCCNCC(=O)N(CCCC)CC(=O)N(CC(=O)N(CC(=O)N(CCCC)CC(=O)N(CCCC)CC(=O)N(CC(=O)N(CC(=O)N(CCCC)CC(=O)N(CCCC)CC(N)=O)CC(C)O)CC(C)O)CC(C)O)CC(C)O (stereo not drawn) [Compound 26, Nbu-Nbu-Nhp-Nhp-Nbu-Nbu-Nhp-Nhp-Nbu-Nbu] (H-[NBuGly][NBuGly][X1][X1][NBuGly][NBuGly][X1][X1][NBuGly][NBuGly]-NH2)		15.0% (ν/ν)	
